Assay results: the NIST ThermoML archive (doi:10.1016/j.tca.2012.11.008)

Assay: mn = molality of the nth substance listed, in mol/kg
Settings: 101 kPa, Liquid; for speed of sound: Sing-around technique in a fixed-path interferometer; for mass density: Vibrating tube method

NC(CO)(CO)CO.O=C(c1ccccc1)c1ccc2n1CCC2C(=O)O (stereo unspecified) [ketorolac tromethamine] + O
Settings	mass density, 293.15 K [kg/m3]	mass density, 298.15 K [kg/m3]	mass density, 303.15 K [kg/m3]	mass density, 308.15 K [kg/m3]	mass density, 313.15 K [kg/m3]	speed of sound, 293.15 K [m/s]	speed of sound, 298.15 K [m/s]	speed of sound, 303.15 K [m/s]	speed of sound, 308.15 K [m/s]	speed of sound, 313.15 K [m/s]
m1 = 0.01	999.38	998.2	996.79	995.17	993.34	1485.6	1499.7	1512	1522.5	1531.5
m1 = 0.02	1000.35	999.17	997.75	996.11	994.28	1486.8	1500.7	1512.9	1523.3	1532.2
m1 = 0.03	1001.41	1000.21	998.78	997.13	995.29	1488.7	1502.5	1514.6	1524.9	1533.7
m1 = 0.04	1002.57	1001.23	999.83	998.13	996.22	1491	1504.7	1516.7	1527	1535.7
m1 = 0.05	1003.3	1002.07	1000.62	998.96	997.1	1492.1	1505.7	1517.6	1527.7	1536.3
m1 = 0.075	1006.13	1004.88	1003.4	1001.71	999.82	1497.4	1510.7	1522.3	1532.2	1540.5
m1 = 0.1	1008.75	1007.46	1005.95	1004.24	1002.31	1501.5	1514.5	1525.8	1535.5	1543.6
m1 = 0.125	1011.43	1010.1	1008.54	1006.74	1004.79	1506	1518.8	1530	1539.4	1547.3
m1 = 0.15	1014.02	1012.67	1011.11	1009.34	1007.39	1509.9	1522.5	1533.4	1542.7	1550.4
m1 = 0.175	1016.56	1015.19	1013.63	1011.84	1009.86	1514.6	1527.1	1538	1547.2	1554.6
m1 = 0.2	1019.22	1017.8	1016.15	1014.32	1012.32	1518.9	1531.4	1542.3	1550.8	1558.1
m1 = 0.25	1024.63	1023.16	1021.49	1019.63	1017.59	1525.6	1537.4	1547.6	1556	1563

O [water] + NC(CO)(CO)CO.O=C(c1ccccc1)c1ccc2n1CCC2C(=O)O
Settings	speed of sound [m/s]
313.15 K, m2 = 0	1529.1
